Data from US20210207064A1, “COMPOUND FOR RESTORING CONTAMINATED SOIL OR CONTAMINATED WATER” (FNG RESEARCH CO., LTD., priority 2018, published 2021).

Key:
[1] = Heavy metal removal ability test in contaminated soil (ICP-MS), arsenic; details: for Arsenic (As) Adsorption amount: contaminated soil; for Arsenic (As) Adsorption rate: relative to EDTA control
Procedure, shortened: (§1)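 Sieved soil spiked with aqueous heavy metal, mixed 5 min with 3 ml of test solution, then extracted with 50 ml distilled water (20 min stirring, 1 h settling). Supernatant metal measured by ICP-MS; adsorption rate (%) expressed relative to control.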

[2] = Heavy metal removal ability test in contaminated soil (ICP-MS), cadmium; details: for Cadmium (Cd) Adsorption amount: contaminated soil; for Cadmium (Cd) Adsorption rate: relative to EDTA control
Procedure, shortened: as §1

[3] = Heavy metal removal ability test in contaminated soil (ICP-MS), nickel; details: for Nickel (Ni) Adsorption amount: contaminated soil; for Nickel (Ni) Adsorption rate: relative to EDTA control
Procedure, shortened: as §1

human skin = assay: Skin irritation test of active ingredient (patch method, CTFA guidelines); assay type: in vivo; details: 24 h patch; for Test result (number of subject) (+) / Test result (number of subject) (++) / Test result (number of subject) (±) / Test result (number of subject) (−): 20 people; for Test result (number of subject) (+): (+) apparent reddening; for Test result (number of subject) (++): (++) more reddened and swollen; for Test result (number of subject) (±): (±) slightly reddish; for Test result (number of subject) (−): (−) no erythema
[4] = Formaldehyde (formalin) removing ability test (GC); details: 2.0% formaldehyde solution, 3 molar equivalents of compound, room temperature; for Formaldehyde GC Area, 30 min: after 30 min; for Formaldehyde GC Area, 180 min: after 180 min; for Formaldehyde GC Area, Initial: initial state
[5] = Heavy metal removal ability test in contaminated soil around a factory (WAK-Me test kit); details: 1.0 wt % aqueous solution, colour comparison test kit
Description: The contaminated soil around the factory in the industrial complex was collected, pulverized, and meshed to prepare fine particles of soil samples.
Each 3 ml of aqueous solutions for restoring soil was added to soil samples and mixed for 5 minutes.

| Structure (SMILES) | Arsenic (As) Adsorption amount ([1]; content 0.5% aqueous solution) | Arsenic (As) Adsorption rate ([1]; content 0.5%) | Arsenic (As) Adsorption amount ([1]; content 1.0% aqueous solution) | Arsenic (As) Adsorption rate ([1]; content 1.0%) | Arsenic (As) Adsorption amount ([1]; content 2.0% aqueous solution) | Arsenic (As) Adsorption rate ([1]; content 2.0%) | Cadmium (Cd) Adsorption amount ([2]; content 0.5% aqueous solution) | Cadmium (Cd) Adsorption rate ([2]; content 0.5%) | Cadmium (Cd) Adsorption amount ([2]; content 1.0% aqueous solution) | Cadmium (Cd) Adsorption rate ([2]; content 1.0%) | Cadmium (Cd) Adsorption amount ([2]; content 2.0% aqueous solution) | Cadmium (Cd) Adsorption rate ([2]; content 2.0%) | Nickel (Ni) Adsorption amount ([3]; content 0.5% aqueous solution) | Nickel (Ni) Adsorption rate ([3]; content 0.5%) | Nickel (Ni) Adsorption amount ([3]; content 1.0% aqueous solution) | Nickel (Ni) Adsorption rate ([3]; content 1.0%) | Nickel (Ni) Adsorption amount ([3]; content 2.0% aqueous solution) | Nickel (Ni) Adsorption rate ([3]; content 2.0%) | Test result (number of subject) (+) (human skin; content 0.1 wt %) | Test result (number of subject) (++) (human skin; content 0.1 wt %) | further results |
| --- | --- | --- | --- | --- | --- | --- | --- | --- | --- | --- | --- | --- | --- | --- | --- | --- | --- | --- | --- | --- | --- |
| O=C(O)c1ccc(N2CCN(c3ccc(C(=O)O)o3)CCN(c3ccc(C(=O)O)o3)CCN(c3ccc(C(=O)O)o3)CC2)o1 [Embodiment 8, 5,5′,5″,5′″-(1,4,7,10-tetraazacyclododecane-1,4,7,10-tetrayl)tetrakis(furan-2-carboxylic Acid)] | 39 ppm | 156% | 47 ppm | 188% | 49 ppm | 196% | 61 ppm | 149% | 64 ppm | 156% | 71 ppm | 173% | 86 ppm | 176% | 96 ppm | 196% | 99 ppm | 202% | 0 | 0 | Test result (number of subject) (±) (human skin; content 0.1 wt %): 0; Test result (number of subject) (−) (human skin; content 0.1 wt %): 20; Degree of irritation (human skin; content 0.1 wt %): 0; Grade for skin irritation (human skin; content 0.1 wt %): I (Degree of irritation 0-0.1: Grade I (unstimulated)); Test result (number of subject) (+) (human skin; content 0.5 wt %): 0; Test result (number of subject) (++) (human skin; content 0.5 wt %): 0; Test result (number of subject) (±) (human skin; content 0.5 wt %): 0; Test result (number of subject) (−) (human skin; content 0.5 wt %): 20; Degree of irritation (human skin; content 0.5 wt %): 0; Grade for skin irritation (human skin; content 0.5 wt %): I (Degree of irritation 0-0.1: Grade I (unstimulated)); Test result (number of subject) (+) (human skin; content 1.0 wt %): 0; Test result (number of subject) (++) (human skin; content 1.0 wt %): 0; Test result (number of subject) (±) (human skin; content 1.0 wt %): 2; Test result (number of subject) (−) (human skin; content 1.0 wt %): 18; Degree of irritation (human skin; content 1.0 wt %): 0.10; Grade for skin irritation (human skin; content 1.0 wt %): I (Degree of irritation 0-0.1: Grade I (unstimulated)); Formaldehyde GC Area, 30 min [4]: 0.168 mAU*min; Formaldehyde GC Area, 180 min [4]: 0 mAU*min; Formaldehyde GC Area, Initial [4]: 0.305 mAU*min; Total amount (Cu, Zn, Mn, Ni, Cd) [5]: ≤5 ppm |
| O=C(O)CN1CCCN(CC(=O)O)CCN(CC(=O)O)CCCN(CC(=O)O)CC1 [Embodiment 9, 2,2′,2″,2′″-(1,4,8,11-tetraazacyclotetradecane-1,4,8,11-tetrayl)tetraacetic Acid] | 42 ppm | 168% | 46 ppm | 184% | 48 ppm | 192% | 61 ppm | 149% | 66 ppm | 161% | 70 ppm | 171% | 76 ppm | 155% | 85 ppm | 173% | 96 ppm | 196% | 0 | 0 | Test result (number of subject) (±) (human skin; content 0.1 wt %): 0; Test result (number of subject) (−) (human skin; content 0.1 wt %): 20; Degree of irritation (human skin; content 0.1 wt %): 0; Grade for skin irritation (human skin; content 0.1 wt %): I (Degree of irritation 0-0.1: Grade I (unstimulated)); Test result (number of subject) (+) (human skin; content 0.5 wt %): 0; Test result (number of subject) (++) (human skin; content 0.5 wt %): 0; Test result (number of subject) (±) (human skin; content 0.5 wt %): 0; Test result (number of subject) (−) (human skin; content 0.5 wt %): 20; Degree of irritation (human skin; content 0.5 wt %): 0; Grade for skin irritation (human skin; content 0.5 wt %): I (Degree of irritation 0-0.1: Grade I (unstimulated)); Test result (number of subject) (+) (human skin; content 1.0 wt %): 0; Test result (number of subject) (++) (human skin; content 1.0 wt %): 0; Test result (number of subject) (±) (human skin; content 1.0 wt %): 2; Test result (number of subject) (−) (human skin; content 1.0 wt %): 18; Degree of irritation (human skin; content 1.0 wt %): 0.10; Grade for skin irritation (human skin; content 1.0 wt %): I (Degree of irritation 0-0.1: Grade I (unstimulated)); Formaldehyde GC Area, 30 min [4]: 0.182 mAU*min; Formaldehyde GC Area, 180 min [4]: 0 mAU*min; Formaldehyde GC Area, Initial [4]: 0.305 mAU*min; Total amount (Cu, Zn, Mn, Ni, Cd) [5]: ≤5 ppm |
| O=C(O)c1ccc(N2CCCN(c3ccc(C(=O)O)cc3)CCN(c3ccc(C(=O)O)cc3)CCCN(c3ccc(C(=O)O)cc3)CC2)cc1 [Embodiment 10, 4,4′,4″,4′″-(1,4,8,11-tetraazacyclotetradecane-1,4,8,11-tetrayl)tetrabenzoic Acid] | 39 ppm | 156% | 42 ppm | 168% | 46 ppm | 184% | 58 ppm | 141% | 65 ppm | 159% | 71 ppm | 173% | 79 ppm | 161% | 92 ppm | 188% | 94 ppm | 192% | 0 | 0 | Test result (number of subject) (±) (human skin; content 0.1 wt %): 0; Test result (number of subject) (−) (human skin; content 0.1 wt %): 20; Degree of irritation (human skin; content 0.1 wt %): 0; Grade for skin irritation (human skin; content 0.1 wt %): I (Degree of irritation 0-0.1: Grade I (unstimulated)); Test result (number of subject) (+) (human skin; content 0.5 wt %): 0; Test result (number of subject) (++) (human skin; content 0.5 wt %): 0; Test result (number of subject) (±) (human skin; content 0.5 wt %): 0; Test result (number of subject) (−) (human skin; content 0.5 wt %): 20; Degree of irritation (human skin; content 0.5 wt %): 0; Grade for skin irritation (human skin; content 0.5 wt %): I (Degree of irritation 0-0.1: Grade I (unstimulated)); Test result (number of subject) (+) (human skin; content 1.0 wt %): 0; Test result (number of subject) (++) (human skin; content 1.0 wt %): 0; Test result (number of subject) (±) (human skin; content 1.0 wt %): 1; Test result (number of subject) (−) (human skin; content 1.0 wt %): 19; Degree of irritation (human skin; content 1.0 wt %): 0.05; Grade for skin irritation (human skin; content 1.0 wt %): I (Degree of irritation 0-0.1: Grade I (unstimulated)); Formaldehyde GC Area, 30 min [4]: 0.171 mAU*min; Formaldehyde GC Area, 180 min [4]: 0 mAU*min; Formaldehyde GC Area, Initial [4]: 0.305 mAU*min; Total amount (Cu, Zn, Mn, Ni, Cd) [5]: ≤5 ppm |
